Experimental data published in PubChem BioAssay (NCI).
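Dose response: 5 concentrations. Exposure: 48 h. Format: 96-well plates. Endpoint: linear interpolation; highest concentration if not reached. The concentration for 50% growth inhibition is given as GI50. TGI denotes the concentration required for complete inhibition of growth.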

Columns and labels:
Assay in all cases: NCI tumour cell line growth inhibition, 48 h
786-0 renal = tested on: 786-0 renal
A549 NSCLC = tested on: A549 NSCLC
ACHN renal = tested on: ACHN renal
BT-549 breast = tested on: BT-549 breast
CAKI-1 renal = tested on: CAKI-1 renal
CCRF-CEM leukemia = tested on: CCRF-CEM leukemia
COLO 205 colon = tested on: COLO 205 colon
DLD-1 colon = tested on: DLD-1 colon
DMS 114 small cell lung = tested on: DMS 114 small cell lung
DMS 273 small cell lung = tested on: DMS 273 small cell lung
EKVX NSCLC = tested on: EKVX NSCLC
HCT-116 colon = tested on: HCT-116 colon
HL-60(TB) leukemia = tested on: HL-60(TB) leukemia
HOP-92 NSCLC = tested on: HOP-92 NSCLC
HT29 colon = tested on: HT29 colon
IGROV1 ovarian = tested on: IGROV1 ovarian
K-562 leukemia = tested on: K-562 leukemia
KM12 colon = tested on: KM12 colon
KM20L2 colon = tested on: KM20L2 colon
LOX IMVI melanoma = tested on: LOX IMVI melanoma
LXFL 529 NSCLC = tested on: LXFL 529 NSCLC
M14 melanoma = tested on: M14 melanoma
MCF7 breast = tested on: MCF7 breast
MDA-MB-435 = tested on: MDA-MB-435
MOLT-4 leukemia = tested on: MOLT-4 leukemia
NCI-H226 lung = tested on: NCI-H226 lung
NCI-H23 lung = tested on: NCI-H23 lung
NCI-H460 lung = tested on: NCI-H460 lung
NCI/ADR-RES ovarian = tested on: NCI/ADR-RES ovarian
OVCAR-4 ovarian = tested on: OVCAR-4 ovarian
OVCAR-5 ovarian = tested on: OVCAR-5 ovarian
PC-3 prostate = tested on: PC-3 prostate
RPMI-8226 leukemia = tested on: RPMI-8226 leukemia
RXF 393 renal = tested on: RXF 393 renal
SF-268 CNS = tested on: SF-268 CNS
SF-295 CNS = tested on: SF-295 CNS
SF-539 CNS = tested on: SF-539 CNS
SK-MEL-28 melanoma = tested on: SK-MEL-28 melanoma
SK-MEL-5 melanoma = tested on: SK-MEL-5 melanoma
SK-OV-3 ovarian = tested on: SK-OV-3 ovarian
SN12C renal = tested on: SN12C renal
SNB-19 CNS = tested on: SNB-19 CNS
SNB-75 CNS = tested on: SNB-75 CNS
SNB-78 CNS = tested on: SNB-78 CNS
T-47D breast = tested on: T-47D breast
TK-10 renal = tested on: TK-10 renal
U251 CNS = tested on: U251 CNS
UACC-257 melanoma = tested on: UACC-257 melanoma
UO-31 renal = tested on: UO-31 renal

In the case of `O=C1C=CC=C[C@@H]2C(C3OCCO3)CC[C@H]12.[C-]#[O+].[C-]#[O+].[C-]#[O+].[Fe]` (stereo partly specified), the GI50 (786-0 renal) is reported as over 69.3 µM, the TGI (786-0 renal) is reported as over 100 µM and the GI50 (A549 NSCLC) is reported as over 100 µM. It also gave a TGI (A549 NSCLC) of over 100 µM, a GI50 (ACHN renal) of 34.8 µM and a TGI (ACHN renal) of over 65.6 µM. The GI50 (BT-549 breast) was 51.4 µM, the TGI (BT-549 breast) was over 100 µM and the GI50 (CAKI-1 renal) was 93.3 µM. The TGI (CAKI-1 renal) was over 100 µM, the GI50 (CCRF-CEM leukemia) was 24.4 µM and the TGI (CCRF-CEM leukemia) was over 89.8 µM. The GI50 (COLO 205 colon) was 49.9 µM, the TGI (COLO 205 colon) was over 70.4 µM and the GI50 (DLD-1 colon) was 19.8 µM. It also gave a TGI (DLD-1 colon) of 45 µM, a GI50 (DMS 114 small cell lung) of 20.1 µM and a TGI (DMS 114 small cell lung) of 45.2 µM. The GI50 (DMS 273 small cell lung) was 30.6 µM, the TGI (DMS 273 small cell lung) was over 100 µM and the GI50 (EKVX NSCLC) was over 100 µM. It also gave a TGI (EKVX NSCLC) of over 100 µM, a GI50 (HCT-116 colon) of 18.9 µM and a TGI (HCT-116 colon) of 41.5 µM. It also gave a TGI (HL-60(TB) leukemia) of over 100 µM, a GI50 (HOP-92 NSCLC) of over 100 µM and a TGI (HOP-92 NSCLC) of over 100 µM. It also gave a GI50 (HT29 colon) of 42.6 µM, a TGI (HT29 colon) of over 100 µM and a GI50 (IGROV1 ovarian) of 26 µM. It also gave a TGI (IGROV1 ovarian) of 78.7 µM, a GI50 (K-562 leukemia) of 41.6 µM and a TGI (K-562 leukemia) of over 100 µM. It also gave a GI50 (KM12 colon) of 48 µM, a TGI (KM12 colon) of over 100 µM and a GI50 (KM20L2 colon) of over 100 µM. For the same compound, the TGI (KM20L2 colon) was over 100 µM, the GI50 (LOX IMVI melanoma) was 1.09 µM and the TGI (LOX IMVI melanoma) was 5.66 µM. It also gave a GI50 (LXFL 529 NSCLC) of 15.6 µM, a TGI (LXFL 529 NSCLC) of 29.4 µM and a GI50 (M14 melanoma) of 37.8 µM. It also gave a TGI (M14 melanoma) of over 74.9 µM, a GI50 (MCF7 breast) of 37.3 µM and a TGI (MCF7 breast) of over 100 µM. The GI50 (MDA-MB-435) was 31.3 µM, the TGI (MDA-MB-435) was over 100 µM and the GI50 (MOLT-4 leukemia) was 26.5 µM. For the same compound, the TGI (MOLT-4 leukemia) was 68.1 µM, the GI50 (NCI-H226 lung) was over 83.5 µM and the TGI (NCI-H226 lung) was over 100 µM. It also gave a GI50 (NCI-H23 lung) of over 52.8 µM, a TGI (NCI-H23 lung) of over 83.7 µM and a GI50 (NCI-H460 lung) of 45.2 µM. For the same compound, the TGI (NCI-H460 lung) was over 100 µM, the GI50 (NCI/ADR-RES ovarian) was over 100 µM and the TGI (NCI/ADR-RES ovarian) was over 100 µM. The GI50 (OVCAR-4 ovarian) was over 47.9 µM, the TGI (OVCAR-4 ovarian) was over 71.9 µM and the GI50 (OVCAR-5 ovarian) was over 100 µM. It also gave a TGI (OVCAR-5 ovarian) of over 100 µM, a GI50 (PC-3 prostate) of 98.9 µM and a TGI (PC-3 prostate) of over 100 µM. It also gave a GI50 (RPMI-8226 leukemia) of 26.8 µM, a TGI (RPMI-8226 leukemia) of over 82.4 µM and a GI50 (RXF 393 renal) of 23.4 µM. It also gave a TGI (RXF 393 renal) of 67 µM, a GI50 (SF-268 CNS) of over 60 µM and a TGI (SF-268 CNS) of over 100 µM. It also gave a GI50 (SF-295 CNS) of 44.4 µM, a TGI (SF-295 CNS) of over 100 µM and a GI50 (SF-539 CNS) of 44.6 µM. The TGI (SF-539 CNS) was 77.2 µM, the TGI (SK-MEL-28 melanoma) was over 46.9 µM and the GI50 (SK-MEL-5 melanoma) was over 100 µM. It also gave a TGI (SK-MEL-5 melanoma) of over 100 µM, a GI50 (SK-OV-3 ovarian) of over 96 µM and a TGI (SK-OV-3 ovarian) of over 100 µM. It also gave a GI50 (SN12C renal) of 76.3 µM, a TGI (SN12C renal) of over 100 µM and a GI50 (SNB-19 CNS) of over 100 µM. It also gave a TGI (SNB-19 CNS) of over 100 µM, a GI50 (SNB-75 CNS) of over 100 µM and a TGI (SNB-75 CNS) of over 100 µM. It also gave a GI50 (SNB-78 CNS) of 22.8 µM, a TGI (SNB-78 CNS) of 66 µM and a GI50 (T-47D breast) of over 100 µM. For the same compound, the TGI (T-47D breast) was over 100 µM, the GI50 (TK-10 renal) was over 100 µM and the TGI (TK-10 renal) was over 100 µM. The GI50 (U251 CNS) was 44.7 µM, the TGI (U251 CNS) was over 82.5 µM and the GI50 (UACC-257 melanoma) was 98.5 µM. It also gave a TGI (UACC-257 melanoma) of over 100 µM, a GI50 (UO-31 renal) of 42.7 µM and a TGI (UO-31 renal) of over 78.4 µM.
